Molecules are shown by their SMILES.

Common to all, as to type: cell-based
For assay [1], the system named is phospho-ERK in Panc10.05 (G12D). The experiment in a line: In-Cell Western phospho-ERK, Panc10.05. The settings on record: Homo sapiens, Panc1005, 1 h; Panc10.05, one hour treatment; read-out: In-Cell Western Panc10.05 (G12D) Erk (P). A digest of the protocol:
(§1)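 In-cell immunofluorescence: after 1 h compound exposure (final DMSO 0.5%) of cells plated 18 h beforehand, fixed cells were probed overnight at 4 °C with phospho-Akt/phospho-ERK antibodies and imaged. Maximal inhibition defined by 1 uM MEK Inhibitor II for pERK, 1 uM BEZ235 for pAkt; EC50 calculated.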

The test system of assay [2] is phospho-Akt in A375 (Wild-type). The experiment in a line: In-Cell Western phospho-Akt, A375. The following applies: Homo sapiens, A-375, 1 h; A375, one hour treatment; read-out: In-Cell Western A375 (Wild-type) Akt (P). On the procedure:
(§2) In-cell phosphorylation assays for Erk and Akt were performed on several of the compounds and exemplary results are shown in Table 3 below using HCC827 and A375 cell lines for wild type K-Ras and Panc1 and Panc10.05 cell lines for G12D K-Ras mutants. Results are expressed in μM and corresponding structures are shown in FIGS. 2A-2G and Examples 1-152, above.
(§3) Cells are seeded in complete medium into black sided, clear-bottom 384-well microplates at 3000 cells/[…]/well. Plates are returned to 37° C. CO2 incubator for 18 hr. Drug is made as 200× in DMSO and diluted into medium to 10×. To each well is added 4 ul 10× test article or controls, and plates are returned to the incubator. Final assay DMSO concentration is 0.5%. After one hour, cells are fixed in formaldehyde, rinsed & permeabilized with triton X-100, and blocked with BSA/Goat serum blocking solution. Primary phospho-Akt and phospho-ERK antibodies are added and plates are incubated overnight at 4° C. Plates are rinsed with Tween-20 wash buffer and secondary antibody (Goat anti-rabbit, Thermofisher) is added. After 2 hours, plates are rinsed in Tween-20 wash buffer, and then PBS. Plates are imaged on the Celigo (Nexcelom) and cellular fluorescence is quantitated. Full inhibition of phospho-Akt is achieved with 1 uM BEZ235 (Sellekchem), while full inhibition of phospho-ERK is achieved with 1 uM MEK Inhibitor II Calbiochem). EC50 values are calculated using Graphpad Prism.

Assay [3] concerns Panc10.05-G12D. The experiment in a line: Viability assay (CellTiterBlue, 72 hr) Panc10.05. The settings on record: Homo sapiens, Panc1005, GI50, CellTiterBlue, Panc10.05 K-Ras G12D, read-out: 72 hr Cell Viability Panc10.05 (G12D). A digest of the protocol: (§4)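 1000 cells/well, 18 hr pre-incubation at 37 °C; compound added from DMSO stock, 0.5% DMSO final; 72 hr; CellTiterBlue 3 hr, fluorescence Ex550/Em590; GI50 normalized to DMSO = 100%, 100 uM tamoxifen = 0% viability.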
Background: Alamar Blue is a resazurin reagent that responds to reducing activity.

Assay [4] deals with HCT116-G31D. The assay is described as follows: Viability assay (CellTiterBlue, 72 hr) HCT116. The settings on record: Homo sapiens, HCT-116, GI50, CellTiterBlue, HCT116 K-Ras G13D, read-out: 72 hr Cell Viability HCT116 (G13D). A digest of the protocol:
as §4

In assay [5] the test system is phospho-ERK in HCC827 (Wild-type). The assay is described as follows: In-Cell Western phospho-ERK, HCC827. The following applies: Homo sapiens, 1 h; HCC827, one hour treatment; read-out: In-Cell Western HCC827 (Wild-type) Erk (P). On the procedure: as §2, §3
Assay [6] deals with U87-MG (K-Ras wild type cell line). The assay is described as follows: Viability assay (CellTiterBlue, 72 hr) U87-MG. The following applies: Homo sapiens, U-87 MG, GI50, CellTiterBlue, U87-MG K-Ras wild-type. A digest of the protocol:
as §4

Assay [7] deals with phospho-Akt in Panc1 (G12D). The assay is described as follows: In-Cell Western phospho-Akt, Panc1. The following applies: Homo sapiens, PANC-1, 1 h; Panc1, one hour treatment; read-out: In-Cell Western Panc1 (G12D) Akt (P). A digest of the protocol: as §1
The test system of assay [8] is phospho-Akt in Panc10.05 (G12D). The assay is described as follows: In-Cell Western phospho-Akt, Panc10.05. The following applies: Homo sapiens, Panc1005, 1 h; Panc10.05, one hour treatment; read-out: In-Cell Western Panc10.05 (G12D) Akt (P). A digest of the protocol: as §1
Assay [9] relates to phospho-ERK in A375 (Wild-type). The assay is described as follows: In-Cell Western phospho-ERK, A375. The settings on record: Homo sapiens, A-375, 1 h; A375, one hour treatment; read-out: In-Cell Western A375 (Wild-type) Erk (P). On the procedure: as §2, §3
The test system of assay [10] is Ishikawa (K-Ras wild type cell line). The experiment in a line: Viability assay (CellTiterBlue, 72 hr) Ishikawa. The following applies: Homo sapiens, GI50, CellTiterBlue, Ishikawa K-Ras wild-type. A digest of the protocol: as §4
Assay [11] concerns phospho-ERK in Panc1 (G12D). The experiment in a line: In-Cell Western phospho-ERK, Panc1. The settings on record: Homo sapiens, PANC-1, 1 h; Panc1, one hour treatment; read-out: In-Cell Western Panc1 (G12D) Erk (P). A digest of the protocol:
as §1

For assay [12], the system named is A375 (K-Ras wild type cell line). The assay is described as follows: Viability assay (CellTiterBlue, 72 hr) A375. The settings on record: Homo sapiens, A-375, GI50, CellTiterBlue. On the procedure:
Viability assays were performed on exemplary compounds and Table 2 below lists exemplary results for selected compounds tested on K-Ras wild type cell lines (Ishikawa, U87-MG, HCC827, and A375) and various K-Ras mutant cell lines (Panc1-G12D; Panc10.05-G12D; HCT116-G31D). Results are expressed in μM and corresponding structures are shown in FIGS. 2A-2G and Examples 1-152, above.
Cells are counted and seeded at 1000 cells/36 ul medium/well into 384-well microplates. Cells are returned to 37° C. CO2 incubator for 18 hr. Drug is made as 200× in DMSO and diluted into medium to 10×. To each well is added 4 ul 10× drug, and plates are returned to the incubator. Final assay DMSO concentration is 0.5%. After 72 hr, 8 ul CellTiterBlue (Promega) is added to each well. After 3 hr, fluorescence (Ex550/Em590) is determined on the Victor Plate Reader (Perkin Elmer). Assay range is determined by DMSO control (100% viability) and 100 uM tamoxifen (0% viability). GI50 values are calculated using Graphpad Prism.

In assay [13] the test system is HCC827 (K-Ras wild type cell line). The assay is described as follows: Viability assay (CellTiterBlue, 72 hr) HCC827. The settings on record: Homo sapiens, GI50, CellTiterBlue, HCC827 K-Ras wild-type. A digest of the protocol: as §4
Assay [14] concerns Panc1-G12D. The assay is described as follows: Viability assay (CellTiterBlue, 72 hr) Panc1. The following applies: Homo sapiens, PANC-1, GI50, CellTiterBlue, Panc1 K-Ras G12D, read-out: 72 hr Cell Viability Panc1 (G12D). A digest of the protocol: as §4

In the case of `O=C1CCc2cc(-c3csc(NC(=O)c4ccnn4-c4ccccc4)n3)ccc2N1` [Compound 47, N-(4-(2-oxo-1,2,3,4-tetrahydroquinolin-6-yl)thiazol-2-yl)-1-phenyl-1H-pyrazole-5-carboxamide], the EC50 in [1], in assay [2], in assay [5], in assay [7], in [8] and in [9] was > 25 µM throughout. Further, the EC50 in assay [11] was > 25 µM. In addition, the IC50 in assay [3], in assay [4], in assay [6], in assay [10], in [12] and in assay [13] was > 25 µM in each case. In addition, the IC50 in [14] was > 25 µM.

Turning to `Cn1nc(-c2ccccc2)cc1C(=O)Nc1nc(-c2ccc3c(c2)CCC(=O)N3)cs1` [Compound 48, 1-methyl-N-(4-(2-oxo-1,2,3,4-tetrahydroquinolin-6-yl)thiazol-2-yl)-3-phenyl-1H-pyrazole-5-carboxamide], the EC50 in assay [1], in assay [2], in [5], in [7], in assay [8] and in assay [9] was > 25 µM in each case. Further, the EC50 in assay [11] was > 25 µM. Also, the IC50 in assay [3], in [4], in assay [6], in [10], in assay [12] and in [13] was > 25 µM in each case. Also, the IC50 in assay [14] is > 25 µM.

With `Cn1nc(C(F)(F)F)cc1C(=O)Nc1nc(-c2ccc3c(c2)CCC(=O)N3)cs1` [Compound 50, 1-methyl-N-(4-(2-oxo-1,2,3,4-tetrahydroquinolin-6-yl)thiazol-2-yl)-3-(trifluoromethyl)-1H-pyrazole-5-carboxamide], the EC50 in assay [1] was > 25 µM; in assay [2], > 25 µM; in [5], 13 µM; in assay [7], > 25 µM; in [8] it was > 25 µM; in assay [9], > 25 µM. Further, the EC50 in assay [11] was > 25 µM. The IC50 in [3], in assay [4], in assay [6], in assay [10], in assay [12] and in [13] was > 25 µM throughout. Moreover, the IC50 in [14] was > 25 µM.

As for `Cc1nc(C)c(C(=O)Nc2nc(-c3ccc4c(c3)CCC(=O)N4CCCN(C)C)cs2)o1` [Compound 98, N-(4-(1-(3-(dimethylamino)propyl)-2-oxo-1,2,3,4-tetrahydroquinolin-6-yl)thiazol-2-yl)-2,4-dimethyloxazole-5-carboxamide], the EC50 in assay [1], in assay [2], in assay [5], in assay [7], in assay [8] and in [9] was > 25 µM each time. Further, the EC50 in assay [11] is > 25 µM. Besides, the IC50 is > 25 µM in [3]; > 25 µM in [4]; > 25 µM in assay [6]; 11 µM in assay [10]; 9 µM in assay [12]; 5 µM in [13]. Further, in assay [14], the IC50 was 13 µM.

On to `Cc1nc(C(=O)Nc2nc(-c3ccc4c(c3)CCC(=O)N4)cs2)c(C)s1` [Compound 20, 2,5-dimethyl-N-(4-(2-oxo-1,2,3,4-tetrahydroquinolin-6-yl)thiazol-2-yl)thiazole-4-carboxamide], for which the EC50 in assay [1], in assay [2], in [5], in assay [7], in [8] and in [9] was > 25 µM in each case. Moreover, the EC50 in assay [11] was > 25 µM. For the same compound, the IC50 in assay [3], in [4], in assay [6], in assay [10], in assay [12] and in assay [13] was > 25 µM throughout. Also, the IC50 in assay [14] was > 25 µM.

On to `CCc1nc(C)c(C(=O)Nc2nc(-c3ccc4c(c3)CCC(=O)N4Cc3cncnc3)cs2)o1` [Compound 104, 2-ethyl-4-methyl-N-(4-(2-oxo-1-(pyrimidin-5-ylmethyl)-1,2,3,4-tetrahydroquinolin-6-yl)thiazol-2-yl)oxazole-5-carboxamide], for which the EC50 in [1], in assay [2], in [5], in [7], in assay [8] and in assay [9] was > 25 µM each time. In addition, the EC50 in assay [11] is > 25 µM. The IC50 was 17 µM in [3]; 5 µM in [4]; > 25 µM in assay [6]; > 25 µM in assay [10]; 6 µM in [12]; > 25 µM in assay [13]. Also, in assay [14], the IC50 was 22 µM.

Take `Cc1nc(C)c(C(=O)Nc2nc(-c3ccc4c(c3)CCC(=O)N4Cc3cccnc3C#N)cs2)o1` [Compound 94, N-(4-(1-((2-cyanopyridin-3-yl)methyl)-2-oxo-1,2,3,4-tetrahydroquinolin-6-yl)thiazol-2-yl)-2,4-dimethyloxazole-5-carboxamide]: the EC50 in assay [1], in assay [2], in assay [5], in assay [7], in assay [8] and in assay [9] was > 25 µM throughout. Further, the EC50 in [11] was > 25 µM. For the same compound, the IC50 in assay [3], in assay [4], in assay [6], in assay [10], in [12] and in assay [13] was > 25 µM in each case. Further, in assay [14], the IC50 was > 25 µM.
